In this experiment the target is T1, FGFR3 kinase (human recombinant GST fusion protein) (Homo sapiens, UniProt P22607).
T1 construct: GST; host or cells: Sf9 insect cells, baculovirus
The experiment in a line: FGFR3 cell free kinase assay (33P-ATP incorporation, FlashPlate, ProQinase). Type of experiment: biochemical. Conditions: test substance: methanesulfonate; 1 μM [γ-33P]-ATP; substrate biotinylated Poly(Glu, Tyr)4:1; 30° C., 80 minutes; 10 points from 10 μM to 0.0003 μM; read-out: FGFR3 kinase-inhibiting activity (IC50). The procedure:
A FGFR3-inhibiting activity of 4-(3-chloro-4-(cyclopropylaminocarbonyl)aminophenoxy)-7-methoxy-6-quinolinecarbox amide was examined by ProQinase (Freiburg, GmbH) on our request. Specifically, the FGFR3-inhibiting activity was determined as follows. FGFR3 kinase was expressed in an insect cell (Spondoptea frugiperda 9 (Sf9)) as human recombinant GST fusion protein by the method of Baculovirus Expression System. The expressed recombinant protein was purified by affinity chromatography using GSH-agarose (from Sigma) or Ni-NTH-agarose (from Qiagen). The purity and identification of the protein were confirmed by SDS-PAGE, silver staining and western blotting using an antibody specific to FGFR3 kinase. Kinase assay was carried out as follows. […] The amount of ^33Pi incorporation was assessed by determining the radioactivity on the plate with a microplate scintillation counter (from Microbeta, Wallac). […] The kinase activity in the presence of the test substance at each concentration was assessed as percentage of the value obtained by subtracting the 0% value from the radioactivity value to the value obtained by subtracting the 0% value from the 100% value.

Broadly, the IC50 is the concentration that gives 50% inhibition.

The structures appear in SMILES notation.

T1 sequence (P22607 23-806): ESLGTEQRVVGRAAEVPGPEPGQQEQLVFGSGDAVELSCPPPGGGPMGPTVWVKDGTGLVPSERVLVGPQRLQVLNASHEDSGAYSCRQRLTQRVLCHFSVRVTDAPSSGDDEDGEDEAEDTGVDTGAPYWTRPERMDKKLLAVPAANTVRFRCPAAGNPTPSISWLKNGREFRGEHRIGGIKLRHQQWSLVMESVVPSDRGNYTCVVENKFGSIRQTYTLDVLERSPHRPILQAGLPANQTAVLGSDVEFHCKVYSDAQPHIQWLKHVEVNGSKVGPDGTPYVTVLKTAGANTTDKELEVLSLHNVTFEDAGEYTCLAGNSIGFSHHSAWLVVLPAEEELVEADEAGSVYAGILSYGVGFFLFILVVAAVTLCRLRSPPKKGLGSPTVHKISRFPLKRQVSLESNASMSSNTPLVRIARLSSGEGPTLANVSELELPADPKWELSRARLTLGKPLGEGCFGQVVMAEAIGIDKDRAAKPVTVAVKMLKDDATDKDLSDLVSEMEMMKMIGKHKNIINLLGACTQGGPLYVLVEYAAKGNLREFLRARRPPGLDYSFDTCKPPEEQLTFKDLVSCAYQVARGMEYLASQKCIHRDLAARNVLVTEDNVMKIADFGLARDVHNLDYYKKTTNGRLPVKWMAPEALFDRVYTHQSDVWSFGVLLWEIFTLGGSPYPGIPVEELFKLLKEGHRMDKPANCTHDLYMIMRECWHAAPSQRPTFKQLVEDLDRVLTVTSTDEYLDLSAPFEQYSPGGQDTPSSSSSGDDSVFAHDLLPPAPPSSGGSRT

Take `COc1cc2nccc(Oc3ccc(NC(=O)NC4CC4)c(Cl)c3)c2cc1C(N)=O` [4-(3-chloro-4-(cyclopropylaminocarbonyl)aminophenoxy)-7-methoxy-6-quinolinecarbox amide]: the IC50 worked out at 140 nM.
